The test system of this assay is HCV replicon, genotype-1a variant with glutamine 30 changed to glutamate in the NS5A protein. As to the kind of experiment: microbe, parasite or virus in culture. As to conditions: HCV replicon genotype 1a Q30E (Q→E) variant; test compound titrated with an NS5A-targeting compound (BMS-790052 fixed at 200 nM); ranking of synergist activity. The format is cell-based, HCV genotype 1a. Summed up: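 Synergy was assessed by combining several fixed amounts of an NS5A-targeting compound with a titration of the second compound of interest.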

Regarding `CC(C)CC(=O)NC1(c2nc(-c3ccc(-c4ccc(-c5c[nH]c(C6(NC(=O)CC(C)C)Cc7ccccc7C6)n5)cc4)cc3)c[nH]2)Cc2ccccc2C1` [Compound N-19], the “Fold-Synergistic 1a (Q30E)” value is reported as under 10 fold.
In the case of `COC(=O)N[C@H](C(=O)NC1(c2nc(-c3ccc(-c4ccc(-c5c[nH]c(C6(NC(=O)[C@@H](NC(=O)OC)C(C)C)CC6)n5)cc4)cc3)c[nH]2)CC1)C(C)C` [Compound N-20] it was under 10 fold; in that of `CC(C)CC(=O)NC1(c2nc(-c3ccc(-c4ccc(-c5c[nH]c(C6(NC(=O)CC(C)C)CC6)n5)cc4)cc3)c[nH]2)CC1` [Compound N-21], under 10 fold.
Turning to `COC(=O)N[C@@H](C(=O)NC1(c2nc(-c3ccc(-c4ccc(-c5c[nH]c(C6(NC(=O)[C@H](NC(=O)OC)C(C)C)CCCCC6)n5)cc4)cc3)c[nH]2)CCCCC1)C(C)C` [Compound N-22], the “Fold-Synergistic 1a (Q30E)” value is listed as over 10 fold.
For the compound `COC(=O)N[C@H](C(=O)NC1(c2nc(-c3ccc(-c4ccc(-c5c[nH]c(C6(NC(=O)[C@@H](NC(=O)OC)C(C)C)CCCCC6)n5)cc4)cc3)c[nH]2)CCCCC1)C(C)C` [Compound N-23], the “Fold-Synergistic 1a (Q30E)” value is given as under 10 fold.
As for `CC(C)CC(=O)NC1(c2nc(-c3ccc(-c4ccc(-c5c[nH]c(C6(NC(=O)CC(C)C)CCCCC6)n5)cc4)cc3)c[nH]2)CCCCC1` [Compound N-24], the “Fold-Synergistic 1a (Q30E)” value is recorded as under 10 fold.
In the case of `COC(=O)N[C@H](C(=O)NC(C)(C)c1nc(-c2ccc(-c3ccc(-c4c[nH]c(C(C)(C)NC(=O)[C@@H](NC(=O)OC)C(C)C)n4)cc3)cc2)c[nH]1)C(C)C` [Compound N-25] it was under 10 fold; in that of `CC(C)CC(=O)NC(C)(C)c1nc(-c2ccc(-c3ccc(-c4c[nH]c(C(C)(C)NC(=O)CC(C)C)n4)cc3)cc2)c[nH]1` [Compound N-26], under 10 fold; in that of `COC(=O)N[C@@H](C(=O)N[C@@H](CC(C)C)c1nc(-c2ccc(-c3ccc(-c4c[nH]c([C@H](CC(C)C)NC(=O)[C@H](NC(=O)OC)C(C)C)n4)cc3)cc2)c[nH]1)C(C)C` [Compound N-29], over 10 fold.
With `COC(=O)N[C@H](C(=O)N[C@@H](CC(C)C)c1nc(-c2ccc(-c3ccc(-c4c[nH]c([C@H](CC(C)C)NC(=O)[C@@H](NC(=O)OC)C(C)C)n4)cc3)cc2)c[nH]1)C(C)C` [Compound N-30], the “Fold-Synergistic 1a (Q30E)” value is recorded as under 10 fold.
In the case of `CC(C)CC(=O)N[C@@H](CC(C)C)c1nc(-c2ccc(-c3ccc(-c4c[nH]c([C@H](CC(C)C)NC(=O)CC(C)C)n4)cc3)cc2)c[nH]1` [Compound N-31] it was over 10 fold.
In the case of `CCC(C)[C@H](NC(=O)[C@H](NC(=O)OC)C(C)C)c1nc(-c2ccc(-c3ccc(-c4c[nH]c([C@@H](NC(=O)[C@H](NC(=O)OC)C(C)C)C(C)CC)n4)cc3)cc2)c[nH]1` (some centres unmarked) [Compound N-32] it was over 10 fold; in that of `CCC(C)[C@H](NC(=O)[C@@H](NC(=O)OC)C(C)C)c1nc(-c2ccc(-c3ccc(-c4c[nH]c([C@@H](NC(=O)[C@@H](NC(=O)OC)C(C)C)C(C)CC)n4)cc3)cc2)c[nH]1` (some centres unmarked) [Compound N-33], over 10 fold; in that of `CCC(C)[C@H](NC(=O)CC(C)C)c1nc(-c2ccc(-c3ccc(-c4c[nH]c([C@@H](NC(=O)CC(C)C)C(C)CC)n4)cc3)cc2)c[nH]1` (some centres unmarked) [Compound N-34], over 100 fold.
In the case of `COC(=O)N[C@H](C(=O)N[C@H](c1nc(-c2ccc(-c3ccc(-c4c[nH]c([C@@H](NC(=O)[C@@H](NC(=O)OC)C(C)C)C(C)(C)C)n4)cc3)cc2)c[nH]1)C(C)(C)C)C(C)C` [Compound N-35] it was over 100 fold; in that of `COC(=O)N[C@@H](C(=O)N[C@@H](C)c1nc(-c2ccc(-c3ccc(-c4c[nH]c([C@H](C)NC(=O)[C@H](NC(=O)OC)C(C)C)n4)cc3)cc2)c[nH]1)C(C)C` [Compound N-37], over 10 fold; in that of `COC(=O)N[C@H](C(=O)N[C@@H](C)c1nc(-c2ccc(-c3ccc(-c4c[nH]c([C@H](C)NC(=O)[C@@H](NC(=O)OC)C(C)C)n4)cc3)cc2)c[nH]1)C(C)C` [Compound N-38], under 10 fold.
`CC(C)CC(=O)N[C@@H](C)c1nc(-c2ccc(-c3ccc(-c4c[nH]c([C@H](C)NC(=O)CC(C)C)n4)cc3)cc2)c[nH]1` [Compound N-39]: the “Fold-Synergistic 1a (Q30E)” value is over 10 fold.
In the case of `CC[C@H](NC(=O)[C@H](NC(=O)OC)C(C)C)c1nc(-c2ccc(-c3ccc(-c4c[nH]c([C@H](CC)NC(=O)[C@H](NC(=O)OC)C(C)C)n4)cc3)cc2)c[nH]1` [Compound N-40] it was over 100 fold.
Take `CC[C@H](NC(=O)[C@@H](NC(=O)OC)C(C)C)c1nc(-c2ccc(-c3ccc(-c4c[nH]c([C@H](CC)NC(=O)[C@@H](NC(=O)OC)C(C)C)n4)cc3)cc2)c[nH]1` [Compound N-41]: the “Fold-Synergistic 1a (Q30E)” value is recorded as over 10 fold.
With `CC[C@H](NC(=O)CC(C)C)c1nc(-c2ccc(-c3ccc(-c4c[nH]c([C@H](CC)NC(=O)CC(C)C)n4)cc3)cc2)c[nH]1` [Compound N-42], the “Fold-Synergistic 1a (Q30E)” value is over 100 fold.
In the case of `COC(=O)N[C@@H](C(=O)N[C@H](c1nc(-c2ccc(-c3ccc(-c4c[nH]c([C@@H](NC(=O)[C@H](NC(=O)OC)C(C)C)C5CCCC5)n4)cc3)cc2)c[nH]1)C1CCCC1)C(C)C` [Compound N-43] it was over 10 fold.
In the case of `CC(C)(C)C(=O)N[C@H](c1nc(-c2ccc(-c3ccc(-c4c[nH]c([C@@H](NC(=O)C(C)(C)C)C5CCCC5)n4)cc3)cc2)c[nH]1)C1CCCC1` [Compound N-44] it was over 100 fold; in that of `CC(C)(C)[C@H](NC(=O)C12CC3CC(CC(C3)C1)C2)c1nc(-c2ccc(-c3ccc(-c4c[nH]c([C@@H](NC(=O)C56CC7CC(CC(C7)C5)C6)C(C)(C)C)n4)cc3)cc2)c[nH]1` [Compound N-62], over 100 fold.
Consider `CC(C)[C@H](NC(=O)C1(C)CCCCC1)c1nc(-c2ccc3c(c2)Cc2cc(-c4c[nH]c([C@@H](NC(=O)C5(C)CCCCC5)C(C)C)n4)ccc2-3)c[nH]1` [Compound N-69], for which the “Fold-Synergistic 1a (Q30E)” value is listed as over 100 fold.
In the case of `CC(C)[C@H](NC(=O)C1CCC(F)(F)CC1)c1nc(-c2ccc3c(c2)Cc2cc(-c4c[nH]c([C@@H](NC(=O)C5CCC(F)(F)CC5)C(C)C)n4)ccc2-3)c[nH]1` [Compound N-70], the “Fold-Synergistic 1a (Q30E)” value is given as over 100 fold.
In the case of `CC(C)[C@H](NC(=O)C1CC(F)(F)C1)c1nc(-c2ccc3c(c2)Cc2cc(-c4c[nH]c([C@@H](NC(=O)C5CC(F)(F)C5)C(C)C)n4)ccc2-3)c[nH]1` [Compound N-71] it was over 100 fold.
In the case of `CC(C)[C@H](NC(=O)C1(C)CCCC1)c1nc(-c2ccc3c(c2)Cc2cc(-c4c[nH]c([C@@H](NC(=O)C5(C)CCCC5)C(C)C)n4)ccc2-3)c[nH]1` [Compound N-72] it was over 100 fold; in that of `CC(C)[C@H](NC(=O)c1cc(Cl)ccc1F)c1nc(-c2ccc3c(c2)Cc2cc(-c4c[nH]c([C@@H](NC(=O)c5cc(Cl)ccc5F)C(C)C)n4)ccc2-3)c[nH]1` [Compound N-73], over 100 fold; in that of `CC(C)[C@H](NC(=O)C(C)(C)F)c1nc(-c2ccc3c(c2)CCc2cc(-c4c[nH]c([C@@H](NC(=O)C(C)(C)F)C(C)C)n4)ccc2-3)c[nH]1` [Compound N-75], over 100 fold.
In the case of `CC(C)[C@H](NC(=O)c1cc(Cl)ccc1F)c1nc(-c2ccc3c(c2)CCc2cc(-c4c[nH]c([C@@H](NC(=O)c5cc(Cl)ccc5F)C(C)C)n4)ccc2-3)c[nH]1` [Compound N-76] it was over 100 fold.
In the case of `Cc1cc(-c2ccc(-c3c[nH]c([C@@H](NC(=O)C4CC(F)(F)C4)C(C)C)n3)cc2)ccc1-c1c[nH]c([C@@H](NC(=O)C2CC(F)(F)C2)C(C)C)n1` [Compound N-78], the “Fold-Synergistic 1a (Q30E)” value is on record as over 100 fold.
For the compound `Cc1cc(-c2ccc(-c3c[nH]c([C@@H](NC(=O)C4(C)CCCCC4)C(C)C)n3)cc2)ccc1-c1c[nH]c([C@@H](NC(=O)C2(C)CCCCC2)C(C)C)n1` [Compound N-79], the “Fold-Synergistic 1a (Q30E)” value is over 100 fold.
In the case of `Cc1cc(-c2ccc(-c3c[nH]c([C@@H](NC(=O)C4(C)CCCC4)C(C)C)n3)cc2)ccc1-c1c[nH]c([C@@H](NC(=O)C2(C)CCCC2)C(C)C)n1` [Compound N-80] it was over 100 fold; in that of `Cc1cc(-c2ccc(-c3c[nH]c([C@@H](NC(=O)c4c(F)cccc4Cl)C(C)C)n3)cc2)ccc1-c1c[nH]c([C@@H](NC(=O)c2c(F)cccc2Cl)C(C)C)n1` [Compound N-81], over 100 fold.
In the case of `Cc1cc(-c2ccc(-c3c[nH]c([C@@H](NC(=O)C4CCC(F)(F)CC4)C(C)C)n3)cc2)ccc1-c1c[nH]c([C@@H](NC(=O)C2CCC(F)(F)CC2)C(C)C)n1` [Compound N-82] it was over 100 fold; in that of `Cc1cc(-c2ccc(-c3c[nH]c([C@@H](NC(=O)C4(C)CCC(F)(F)CC4)C(C)C)n3)cc2)ccc1-c1c[nH]c([C@@H](NC(=O)C2(C)CCC(F)(F)CC2)C(C)C)n1` [Compound N-84], over 100 fold; in that of `COC(C)(C)C(=O)N[C@H](c1nc(-c2ccc(-c3ccc(-c4c[nH]c([C@@H](NC(=O)C(C)(C)OC)C(C)(C)C)n4)c(C)c3)cc2)c[nH]1)C(C)(C)C` [Compound N-85], over 100 fold.
In the case of `Cc1cc(-c2ccc(-c3c[nH]c([C@@H](NC(=O)C(C)(C)C)C(C)(C)C)n3)cc2)ccc1-c1c[nH]c([C@@H](NC(=O)C(C)(C)C)C(C)(C)C)n1` [Compound N-86] it was over 100 fold; in that of `COC(C)(C)C(=O)N[C@H](c1nc(-c2ccc(-c3ccc(-c4c[nH]c([C@@H](NC(=O)C(C)(C)OC)C(C)C)n4)c(F)c3)cc2)c[nH]1)C(C)C` [Compound N-87], over 100 fold; in that of `CC(C)[C@H](NC(=O)c1cc(Cl)ccc1F)c1nc(-c2ccc(-c3ccc(-c4c[nH]c([C@@H](NC(=O)c5cc(Cl)ccc5F)C(C)C)n4)c(F)c3)cc2)c[nH]1` [Compound N-88], over 100 fold.

The values are drawn from patent US9326973B2, “Hepatitis C virus inhibitors” (priority 2012, dated 2016).
